{"source": "ChEMBL document CHEMBL1201861", "about": "“Genomics of Drug Sensitity in Cancer screening data, Wellcome Trust Sanger Institute”", "assay_in_all_cases": "cells", "type_in_all_cases": "functional, cell-based", "settings_in_all_cases": "Homo sapiens", "key": {"CP50-MEL-B": {"system": "CP50-MEL-B", "description": "SANGER: Inhibition of human CP50-MEL-B cell growth in a cell viability assay."}, "Calu-3": {"system": "Calu-3", "description": "SANGER: Inhibition of human Calu-3 cell growth in a cell viability assay."}, "DMS-273": {"system": "DMS-273", "description": "SANGER: Inhibition of human DMS-273 cell growth in a cell viability assay."}, "EW-22": {"system": "EW-22", "description": "SANGER: Inhibition of human EW-22 cell growth in a cell viability assay."}, "G-402": {"system": "G-402", "description": "SANGER: Inhibition of human G-402 cell growth in a cell viability assay."}, "HEC-1": {"system": "HEC-1", "description": "SANGER: Inhibition of human HEC-1 cell growth in a cell viability assay."}, "HOS": {"system": "HOS", "description": "SANGER: Inhibition of human HOS cell growth in a cell viability assay."}, "HPAF-II": {"system": "HPAF-II", "description": "SANGER: Inhibition of human HPAF-II cell growth in a cell viability assay."}, "HT-29": {"system": "HT-29", "description": "SANGER: Inhibition of human HT-29 cell growth in a cell viability assay."}, "HuP-T4": {"system": "HuP-T4", "description": "SANGER: Inhibition of human HuP-T4 cell growth in a cell viability assay."}, "KOSC-2": {"system": "KOSC-2", "description": "SANGER: Inhibition of human KOSC-2 cell growth in a cell viability assay."}, "KU-19-19": {"system": "KU-19-19", "description": "SANGER: Inhibition of human KU-19-19 cell growth in a cell viability assay."}, "KYSE-140": {"system": "KYSE-140", "description": "SANGER: Inhibition of human KYSE-140 cell growth in a cell viability assay."}, "KYSE-270": {"system": "KYSE-270", "description": "SANGER: Inhibition of human KYSE-270 cell growth in a cell viability assay."}, "KYSE-70 cell line": {"system": "KYSE-70 cell line", "description": "SANGER: Inhibition of human KYSE-70 cell growth in a cell viability assay."}, "MHH-ES-1": {"system": "MHH-ES-1", "description": "SANGER: Inhibition of human MHH-ES-1 cell growth in a cell viability assay."}, "NCI-H1792": {"system": "NCI-H1792", "description": "SANGER: Inhibition of human NCI-H1792 cell growth in a cell viability assay."}, "NCI-H2030": {"system": "NCI-H2030", "description": "SANGER: Inhibition of human NCI-H2030 cell growth in a cell viability assay."}, "NCI-H2170": {"system": "NCI-H2170", "description": "SANGER: Inhibition of human NCI-H2170 cell growth in a cell viability assay."}, "NCI-H2228": {"system": "NCI-H2228", "description": "SANGER: Inhibition of human NCI-H2228 cell growth in a cell viability assay."}, "NCI-H661": {"system": "NCI-H661", "description": "SANGER: Inhibition of human NCI-H661 cell growth in a cell viability assay."}, "OE33": {"system": "OE33", "description": "SANGER: Inhibition of human OE33 cell growth in a cell viability assay."}, "PA-1": {"system": "PA-1", "description": "SANGER: Inhibition of human PA-1 cell growth in a cell viability assay."}, "PANC-03-27": {"system": "PANC-03-27", "description": "SANGER: Inhibition of human PANC-03-27 cell growth in a cell viability assay."}, "SW13": {"system": "SW13", "description": "SANGER: Inhibition of human SW13 cell growth in a cell viability assay."}, "T-24": {"system": "T-24", "description": "SANGER: Inhibition of human T-24 cell growth in a cell viability assay."}, "TCC-SUP": {"system": "TCC-SUP", "description": "SANGER: Inhibition of human TCCSUP cell growth in a cell viability assay."}, "A673": {"system": "A673", "description": "SANGER: Inhibition of human A673 cell growth in a cell viability assay."}, "ACHN": {"system": "ACHN", "description": "SANGER: Inhibition of human ACHN cell growth in a cell viability assay."}, "BFTC-905": {"system": "BFTC-905", "description": "SANGER: Inhibition of human BFTC-905 cell growth in a cell viability assay."}, "BFTC-909": {"system": "BFTC-909", "description": "SANGER: Inhibition of human BFTC-909 cell growth in a cell viability assay."}, "CAL-51": {"system": "CAL-51", "description": "SANGER: Inhibition of human CAL-51 cell growth in a cell viability assay."}, "CAL-54": {"system": "CAL-54", "description": "SANGER: Inhibition of human CAL-54 cell growth in a cell viability assay."}, "U-118-MG": {"system": "U-118-MG", "description": "SANGER: Inhibition of human U-118-MG cell growth in a cell viability assay."}, "UO-31": {"system": "UO-31", "description": "SANGER: Inhibition of human U031 cell growth in a cell viability assay."}, "UMC-11": {"system": "UMC-11", "description": "SANGER: Inhibition of human UMC-11 cell growth in a cell viability assay."}, "VMRC-RCZ": {"system": "VMRC-RCZ", "description": "SANGER: Inhibition of human VMRC-RCZ cell growth in a cell viability assay."}, "CHP-212": {"system": "CHP-212", "description": "SANGER: Inhibition of human CHP-212 cell growth in a cell viability assay."}}, "data": [{"smiles": "CC[C@@]1(O)C(=O)OCc2c1cc1n(c2=O)Cc2cc3ccccc3nc2-1", "note": "[CAMPTOTHECIN]", "values": [{"measurement": "IC50", "setting": "CP50-MEL-B", "value": 72.1, "unit": "nM"}, {"measurement": "IC50", "setting": "Calu-3", "value": 32.8, "unit": "nM"}, {"measurement": "IC50", "setting": "DMS-273", "value": 6.07, "unit": "nM"}, {"measurement": "IC50", "setting": "EW-22", "value": 0.557, "unit": "nM"}, {"measurement": "IC50", "setting": "G-402", "value": 24.5, "unit": "nM"}, {"measurement": "IC50", "setting": "HEC-1", "value": 18.1, "unit": "nM"}, {"measurement": "IC50", "setting": "HOS", "value": 1.4, "unit": "nM"}, {"measurement": "IC50", "setting": "HPAF-II", "value": 55.1, "unit": "nM"}, {"measurement": "IC50", "setting": "HT-29", "value": 85.5, "unit": "nM"}, {"measurement": "IC50", "setting": "HuP-T4", "value": 0.881, "unit": "nM"}, {"measurement": "IC50", "setting": "KOSC-2", "value": 4.39, "unit": "nM"}, {"measurement": "IC50", "setting": "KU-19-19", "value": 22, "unit": "nM"}, {"measurement": "IC50", "setting": "KYSE-140", "value": 69.7, "unit": "nM"}, {"measurement": "IC50", "setting": "KYSE-270", "value": 5.22, "unit": "nM"}, {"measurement": "IC50", "setting": "KYSE-70 cell line", "value": 92.1, "unit": "nM"}, {"measurement": "IC50", "setting": "MHH-ES-1", "value": 0.129, "unit": "nM"}, {"measurement": "IC50", "setting": "NCI-H1792", "value": 40.1, "unit": "nM"}, {"measurement": "IC50", "setting": "NCI-H2030", "value": 48.5, "unit": "nM"}, {"measurement": "IC50", "setting": "NCI-H2170", "value": 13.7, "unit": "nM"}, {"measurement": "IC50", "setting": "NCI-H2228", "value": 49, "unit": "nM"}, {"measurement": "IC50", "setting": "NCI-H661", "value": 13.6, "unit": "nM"}, {"measurement": "IC50", "setting": "OE33", "value": 25.6, "unit": "nM"}, {"measurement": "IC50", "setting": "PA-1", "value": 0.981, "unit": "nM"}, {"measurement": "IC50", "setting": "PANC-03-27", "value": 7.1, "unit": "nM"}, {"measurement": "IC50", "setting": "SW13", "value": 2.99, "unit": "nM"}, {"measurement": "IC50", "setting": "T-24", "value": 1.61, "unit": "nM"}, {"measurement": "IC50", "setting": "TCC-SUP", "value": 39, "unit": "nM"}, {"measurement": "IC50", "setting": "A673", "value": 0.815, "unit": "nM"}, {"measurement": "IC50", "setting": "ACHN", "value": 6.66, "unit": "nM"}, {"measurement": "IC50", "setting": "BFTC-905", "value": 0.14, "unit": "nM"}, {"measurement": "IC50", "setting": "BFTC-909", "value": 6.92, "unit": "nM"}, {"measurement": "IC50", "setting": "CAL-51", "value": 29.7, "unit": "nM"}, {"measurement": "IC50", "setting": "CAL-54", "value": 4.76, "unit": "nM"}, {"measurement": "IC50", "setting": "U-118-MG", "value": 19, "unit": "nM"}, {"measurement": "IC50", "setting": "UO-31", "value": 34.1, "unit": "nM"}, {"measurement": "IC50", "setting": "UMC-11", "value": "> 100", "unit": "nM"}, {"measurement": "IC50", "setting": "VMRC-RCZ", "value": 47.3, "unit": "nM"}, {"measurement": "IC50", "setting": "CHP-212", "value": 1.03, "unit": "nM"}]}]}
